# Experimental data: patent US9775859B2, “Methods and compositions for preventing and treating a disease related to glycan dysregulation” (Sinai Health System, priority 2005, dated 2017)
# Entries after “also recorded” stand apart in the source; their conditions may differ.
# Tests used:
# [1] = test system: Jurkat T-cells; assay: L-PHA-FITC staining of Jurkat T cells cultured 3 days with monosaccharides, metabolites, Vitamin D3 or glycosidase inhibitors, FACS; assay type: cell-based, human; conditions: for Mgat5-modified N-glycan expression: Jurkat T; for Mgat5 N-glycans / β1,6GlcNAc-branched N-glycans expression (L-PHA staining): 3 days culture with supplement
# Protocol: (§1) Mice used for L-PHA staining and quantitative RT-PCR were sex and age matched. […] 129/Sv mice were from an original Mgat5 gene targeted population (28). All other mice (SJL, NOD, Balb/c and B10.S) were obtained from Jackson Laboratories. […] Mouse and Jurkat cells were stained with L-PHA and LEA by first blocking with PBA (2% bovine serum albumin/0.01% azide/PBS) for 10 min at 4° C. and then incubated with 4 μg/ml of L-PHA-FITC (Vector Laboratories Inc.) or 20 μg/ml of LEA-FITC (Sigma) in PBA for 40 min at 4° C. and analyzed by a BD FACSCalihur (BD Pharmingen, San Diego, Calif.). The level of lectin binding was normalized by untreated control and calculated as a percentage (Sample intensity/control intensity-1) %.
# (§2) Mice used for L-PHA staining and quantitative RT-PCR were sex and age matched. […] 129/Sv mice were from the original Mgat5 gene targeted population (28). All other mice (SJL, NOD, Balb/c and B10.S) were obtained from Jackson Laboratories. Mouse cells were stained with anti-CD4 (RM4-5), anti-CD8 (53-6.7), anti-CD45R (RA3-6B2) from eBioscience, and L-PHA (4 μg/ml) and LEA (20 μg/ml) from Sigma. […] Jurkat T-cells were cultured in either glutamine free RPMI 1640, 10% FBS, 10 mM/20 mM glucose or glucose/glutamine free DMEM base media supplemented with 10% FBS, 1.5 mM glucose. The indicated monosaccharides and/or metabolites were added daily except glucose which was added only at time zero.
# [2] = test system: Jurkat T-cells; assay: LEA-FITC staining (poly-N-acetyllactosamine) of Jurkat T cells, FACS; assay type: cell-based, human; conditions: 3 days culture with supplement
# Protocol: as §1, §2
# [3] = test system: PL/J and C57/B6 T cell cultures; assay: L-PHA staining of mouse CD3+ T cells stimulated with anti-CD3, FACS; assay type: cell-based; conditions: for up-regulation of β1,6 GlcNAc branched N-glycans following stimulation: anti-CD3, minimal concentrations; for resting levels of β1,6 GlcNAc branched N-glycans: minimal concentrations
# Protocol: as §1
# Mice used for L-PHA staining and quantitative RT-PCR were sex and age matched. […] 129/Sv mice were from the original Mgat5 gene targeted population (28). All other mice (SJL, NOD, Balb/c and B10.S) were obtained from Jackson Laboratories. Mouse cells were stained with anti-CD4 (RM4-5), anti-CD8 (53-6.7), anti-CD45R (RA3-6B2) from eBioscience, and L-PHA (4 μg/ml) and LEA (20 μg/ml) from Sigma. […] The indicated monosaccharides and/or metabolites were added daily except glucose which was added only at time zero. […] The plateau or highest non-toxic dose is shown.
# [4] = test system: CHO cells; assay: L-PHA and ConA lectin staining of CHO cells by FACS; assay type: cell-based, Chinese Hamster; conditions: CHO cells treated with inhibitor
# From the text: (§3) For comparison of N-glycan profiles of mice and human MS patients, CHO cells and CHO cells deficient at 5 different steps in the N-glycan pathway (Glucosidase I, Mannosidase I, MGAT1, Mannosidase II and MGAT5, FIG. 7A) were used to define relative L-PHA and Concanavillin A (ConA) lectin staining levels by FACS along with MALDI TOF N-glycan processing profiles. […] Indeed, a human infant with severe human glucosidase I deficiency accumulates Glc3Man (885 A ion in FIG. 16A, 21C) in the urine, a 4 hexose oligomer which derives from the Glucosidase I substrate Glc3Man9GlcNAc2 via endo-mannosidase activity (70). […] Such activity would produce Man8GlcNAc2, Man7GlcNAc2 and Man6GlcNAc2 structures and allow processing by Mannosidase I/II. Indeed, N-glycans of these 3 compositions accumulate in Glucosidase I/II inhibited cells when Mannosidase I activity is blocked with DMN (69). The larger structures Glc3Man9GlcNAc2 (mass 3008) and Glc3Man7GlcNAc2 (mass 2600) were also observed (67), however they were at lower relative intensities compared to the A ion group (FIG. 21C). […] Mixing CHO and Lec1 cells in various proportions confirmed that relative differences in expression of N-glycan structures can be determined using MALDI TOF (FIG. 21G).
# [5] = test system: CHO cells; assay: MALDI-TOF mass spectroscopy N-glycan profile of CHO cells; assay type: cell-based, Chinese Hamster; conditions: CHO cells treated with inhibitor
# Protocol: This was done as a service at the Glycotechnology core facility, a resource of the Glycobiology Research and Training Center (GRTC) at the University of California, San Diego. CD3+ murine T cells (6×10^6), resting PBMCs from human controls and MS subjects (6×10^6) and CHO cells (10×10^6) were lysed with 1% SDS in 100 mM Tris pH 7.4, dialyzed to remove SDS, digested with trypsin to generate glycopeptides and treated with PNGaseF to release the N-glycans. To focus on early processing, N-glycans were desialylated by mild acid digestion prior to permethylation and MALDI-TOF mass spectroscopy. Monoisotopic peaks in the spectra were identified using GlycanMass and GlycoMod online software, with specific targeting of the N-glycan intermediates occurring during Golgi processing.
# as §3
# [6] = test system: Jurkat T-cells; assay: MS/MS mass spectroscopy of sugar-nucleotide expression in Jurkat cell lysates; assay type: cell-based, human
# Protocol: Jurkat cell pellets (20×10^6) were resuspended in a cold 300 μl methanol:water (1:1) solution containing maltose as internal standard, vortexed for 10 seconds, and then pipetted into tubes containing 600 μl of chloroform:methanol (C:M) (3:2). Samples were vortexed for 1 minute, and then centrifuged at 14,000 rpm for 5 minutes at 4° C. Supernatants were collected, and an equal volume of C:M (1:1) was added, followed by a second extraction. The pooled aqueous fraction containing the hydrophilic metabolites was dried with a speedvac and stored at −80° C. Prior to injection, the samples were dissolved in 100 μl methanol:water (1:1). […] The metabolites were identified by their transitions in MS/MS, and quantified using the Analyte Software (SCIEX), which measured the area under the curve for the fragment ions corresponding to each parent ion. Quantities for the given substrates are graphed as pmole/min/10^6 cells.
# JurkaT-cell pellets (20×10^6) were resuspended in cold 300 μl methanol:water (1:1) solution containing maltose as an internal standard, vortexed for 10 seconds, and then pipetted into tubes containing 600 μl of chloroform:methanol (C:M) (3:2). […] The metabolites were identified by their transitions in MS/MS, and quantified using the Analyte Software (SCIEX), which measured the area under the curve for the fragment ions corresponding to each parent ion. […]
smiles,measurement,setting,value
CC(=O)N[C@H]1C(OC(C)=O)O[C@H](COC(C)=O)[C@@H](OC(C)=O)[C@@H]1OC(C)=O (stereo partly drawn) [GlcNAc-tetra-acetate],"effective concentration to increase Mgat5-modified N-glycan expression, fold less than GlcNAc","[1]; Jurkat T-cells, 3 days",~1000 fold
N[C@H]1C(O)O[C@H](CO)[C@@H](O)[C@@H]1O (stereo partly drawn) [Glucosamine],Mgat5-modified N-glycan expression,[1]; high concentrations,do the opposite; also recorded: declines
same,Mgat5-modified N-glycan expression,[1]; low concentrations,increase; also recorded: works
CC(=O)CC(=O)O [acetoacetate],"Mgat5 N-glycans / β1,6GlcNAc-branched N-glycans expression (L-PHA staining)",[1]; Jurkat T-cells,dose dependently increased
same,poly-N-acetyllactosamine expression (LEA staining),[2],dose dependently increased
N [ammonia],"Mgat5 N-glycans / β1,6GlcNAc-branched N-glycans expression (L-PHA staining)",[1]; Jurkat T-cells,dose dependently increased
same,poly-N-acetyllactosamine expression (LEA staining),[2],dose dependently increased
"O[C@H]1[C@H](O)[C@@H](O)CN2CC[C@H](O)[C@H]12 [castanospermine, reference compound]","Mgat5 glycan / β1,6GlcNAc-branched N-glycan expression after glycosidase inhibition (L-PHA)","[1]; Jurkat T cells, 3 days",dose dependent reduction; also recorded: reduced
same,"up-regulation of β1,6 GlcNAc branched N-glycans following stimulation","[1]; Jurkat T cells, PMA/ionomycin or anti-CD3, minimal concentrations, listed as CST",significantly attenuated
same,"resting levels of β1,6 GlcNAc branched N-glycans","[1]; Jurkat T cells, minimal concentrations, listed as CST",without affecting; also recorded: do not affect
same,"up-regulation of β1,6 GlcNAc branched N-glycans following stimulation",[3]; listed as CST,significantly attenuated
same,"resting levels of β1,6 GlcNAc branched N-glycans",[3]; listed as CST,without affecting; also recorded: do not affect
OC[C@H]1NC[C@@H](O)[C@@H](O)[C@@H]1O [deoxymannojirimycin],high-mannose structures as seen by ConA staining,[4],increased
same,"β1,6GlcNAc-branched N-glycan expression by L-PHA staining",[4],dramatic reductions
same,"up-regulation of β1,6 GlcNAc branched N-glycans following stimulation",[3]; listed as DMN,significantly attenuated
same,"resting levels of β1,6 GlcNAc branched N-glycans",[3]; listed as DMN,without affecting; also recorded: do not affect
same,MALDI TOF profile of N-glycans (accumulated structures),[5],dramatic increases in high mannose structures
same,"β1,6GlcNAc-branched tetra-antennary N-glycans (mass 2969, structure G)",[5],diminished
NC(=O)CC[C@H](N)C(=O)O [glutamine],"Mgat5 N-glycans / β1,6GlcNAc-branched N-glycans expression (L-PHA staining)",[1]; Jurkat T-cells,dose dependently increased
same,poly-N-acetyllactosamine expression (LEA staining),[2],dose dependently increased
O=c1cc[nH]c(=O)[nH]1 [uracil],"effective concentration required to raise Mgat5-modified N-glycan expression, fold reduction compared to uridine","[1]; Jurkat T-cells, 3 days",~100 fold
O=c1ccn([C@@H]2O[C@H](CO)[C@@H](O)[C@H]2O)c(=O)[nH]1 [uridine],intracellular UDP-GlcNAc levels,[6],dramatically raised
same,"Mgat5 N-glycans / β1,6GlcNAc-branched N-glycans expression (L-PHA staining)",[1]; Jurkat T-cells,dose dependently increased
same,poly-N-acetyllactosamine expression (LEA staining),[2],dose dependently increased
